{"source": "patent US6921811B2", "about": "“Bioactive coating composition and methods” (BioSurface Engineering Technologies, Inc., priority 1998, dated 2005)", "key": {"C3H10T1/2 cells [1]": {"test_system": "C3H10T1/2 cells", "experiment": "Attachment of C3H10T1/2 cells to silyl-heparin coated wells complexed with adhesive molecules, crystal violet", "type": "cell-based, murine", "parameters": "unit not given here", "conditions": "after two hours; hydrogel-polystyrene 96-well plates coated with silyl-heparin complexes and the listed adhesive molecule; proteins 100 μg/ml, serum undiluted", "description": "Attachment of C3H10T1/2 cells after two hours to wells of 96-well, hydrogel-polystyrene plates coated with silyl-heparin complexes and the listed adhesive molecule was detected by staining with crystal violet. All proteins were used at a concentration of 100 μg/ml in buffered saline. Serum was used without dilution. Statistical significance was assessed relative to the values from buffered saline using Student's t-test, with * indicating p<0.05, ** indicating p<0.01 and *** indicating p<0.001."}, "[2]": {"test_system": "C3H10T1/2 (murine fibroblasts)", "experiment": "Cell attachment, spreading and growth on coated low-attachment polystyrene wells", "type": "cell-based", "excerpt": "(§1) Several cell types were used, including GS-9L cells (rat gliosarcoma), C3H10T1/2 (murine fibroblasts), Jurkat (human T cell), bovine aorta endothelial (BAE) cells and rat lymphocytes. GS-9L and C3H10T1/2 cells were maintained in log phase growth and detached from cultureware using Versene and collected by centrifugation. Jurkat cells grew as single cell suspensions and were collected by centrifugation. Rat lymphocytes were collected from heparinized blood by density gradient isolation over Ficoll-Hypaque® media. The collected cells were rinsed once by low speed centrifugation and suspended in either serum-free Dulbecco's Modified Eagles Medium (DMEM) containing pyruvate or RPMI 1640 containing 10% fetal bovine serum (FBS) supplemented with pyruvate. Aliquots of 10^4 cells in 100 μL were used in subsequent adhesion studies.\n(§2) The cells were examined after plating using an inverted, phase-contrast microscope. At selected time points up to 4 days after initial seeding, the cells were rinsed three times in saline and fixed in buffered 10% formalin or 35% ethanol. In some cases, the cells were stained in situ with a 0.01 % aqueous solution of crystal violet. The amount of attachment was scored visually or quantitated. To establish the relative number of cells bound, crystal violet stained cells were dissolved in a solution of 70% ethanol containing 0.1% sodium dodecyl sulfate and 0.38 M Tris and the absorbance monitored at 610 nm, using the methods of Scragg and Ferreira (Anal Biochem 198:80-5, 1991) and Grando et al. (Skin Pharmacol 6:135-47, 1993).\n(§3) The cells of Example 7 were added to untreated polystyrene wells, wells coated with silyl-heparin as in Example 4, with silyl-heparin-fibronectin as in Example 5, and with only fibronectin by incubation as described in Example 5. […] Cells were seeded at a concentration of 10^4 cells/well in serum-containing medium.\nThe cells grew to confluency by 4 days. […] No effort was made to grow the cells in a defined- or serum-low medium known to support growth. […]"}, "[3]": {"test_system": "GS-9L cells (rat gliosarcoma)", "experiment": "Cell attachment, spreading and growth on coated low-attachment polystyrene wells", "type": "cell-based", "conditions": "10^4 cells/well, serum-containing medium", "excerpt": "as §1, §2, §3\nThe cells grew to confluency by 4 days. […] No effort was made to grow the cells in a defined- or serum-low medium known to support growth."}, "[4]": {"conditions": "affinity binding of fibronectin to heparin; cited from earlier work"}, "C3H10T1/2 cells [5]": {"test_system": "C3H10T1/2 cells", "experiment": "C3H10T1/2 cell attachment to a variety of coated substrates", "type": "cell-based, murine", "description": "as §2\nThe general applicability of silyl-heparin-fibronectin complex was evaluated by applying this coating using the methods of Examples 4 and 5 to a variety of surfaces, including polystyrene, polylactide:polyglycolide, polycaprolactone, polyurethane and stainless steel. […] They did, however, bind moderately well to polylactide:polyglycolide and to polycaprolactone, and very well to stainless steel."}, "bFGF": {"target": "T1, bFGF (Homo sapiens, UniProt P09038)", "T1 construct": "purchased Sigma Chemical Co", "T1 sequence (P09038 143-288, species assumed)": "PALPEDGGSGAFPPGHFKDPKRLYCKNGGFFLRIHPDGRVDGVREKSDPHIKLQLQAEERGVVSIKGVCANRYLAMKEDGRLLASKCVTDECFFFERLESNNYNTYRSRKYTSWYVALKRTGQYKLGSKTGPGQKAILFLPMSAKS", "experiment": "Effect of adhesive molecules complexed to silyl-heparin on subsequent bFGF binding", "conditions": "adhesive molecule complexed to silyl-heparin at 100 μg/mL before bFGF", "description": "Wells of 96 well polystyrene microtiter plates, with a well surface area of 0.32 cm^2, were coated with 30 μl of silyl heparin for 15 minutes at 37° C. After rinsing and air-drying, bFGF (Sigma Chemical Co.) in PBS/BSA was added in 150 μL aliquots in doubling dilutions. The plate was incubated at 37° C. for 1 hour and rinsed 5 times in PBS. An aliquot 150 μl of PBS/BSA containing 1:500 rabbit anti-FGF antibodies were added, incubated for 1 hour and rinsed. In some cases an irrelevant rabbit antibody was used at a similar concentration (rabbit anti-TGF-receptor II, Santa Cruz Biotechnology). An aliquot of PBS/BSA containing 1:500 HRPO-conjugated donkey anti-rabbit IgG added, and after incubation and rinsing ABTS-chromogen added. All antibody solutions were filtered through 0.2 micron filters prior to use. The absorbance was monitored at 405 nm. […] When anti-TGF-II (irrelevant antibody directed against the transforming growth factor receptor) was used instead of anti-FGF and at the same anti-dilutions, no bFGF was detected. When TGF-β, at a concentration of 40 ng was used as the growth factor molecule, no activity was detected with anti-bFGF antibodies.\nMurine type IV collagen, human fibrinogen and bovine fibronectin isolated from plasma were bound to silyl-heparin complexes bound to wells of polystyrene microtiter plates, at a concentration of 100 μg/mL in PBS/BSA. […]"}, "C3H10T1/2 cells [6]": {"test_system": "C3H10T1/2 cells", "experiment": "Cross-titration of fibronectin and silyl-heparin needed to support cell attachment", "type": "cell-based, murine", "conditions": "fibronectin titrated from 4 μg/well on silyl-heparin applied at 30 μg/well; 24 hours; crystal violet, 610 nm", "description": "The optimal amount of fibronectin and silyl-heparin to support attachment of C3H10T1/2 cells was determined by cross-titration, as shown on FIG. 1. […] The fall-off for the silyl-heparin was more gradual. The curve of the relative amount of silyl-heparin on the substrate following serial dilution generally followed the cell attachment curve.\nIn FIG. 1, fibronectin (Δ—Δ) or silyl-heparin (•—•) were titrated to determine the quantity needed to support attachment of C3H10T1/2 cells. All dilutions were performed in quadruplicate in wells of 96-well plates of low-attachment polystyrene. For titration of fibronectin, silyl-heparin was applied at 30 μg/well in 70% ethanol as in Example 4. After rinsing, fibronectin was applied in doubling dilutions of phosphate buffered saline starting from 4 μg/well. For titration of silyl-heparin, silyl-heparin was applied in doubling dilutions in 70% ethanol starting from silyl-heparin concentrations of 30 μg/well. Fibronectin was then applied in saline at 4 μg/well. Cells were at a concentration of 10^4 cells/well in growth medium. For both experiments, the cells were allowed 24 hours to attach and then were rinsed and fixed in buffered formalin. The cells were stained for 5 minutes with 0.01% aqueous crystal violet and the absorbance at 610 nm determined."}, "[7]": {"test_system": "Bovine aorta endothelial cells", "experiment": "Capillary tube formation on coated low attachment wells", "type": "cell-based", "conditions": "5×10^3 cells per well; DMEM containing 10% FBS; 4 days; phase contrast microscopy", "description": "Low attachment 96 well plates were coated with saline, silyl-heparin complex, silyl-heparin-fibrinogen complex or silyl-heparin-bFGF complex. Bovine aorta endothelial cells (5×10^3 cells) were seeded into each well in DMEM containing 10% FBS. The cells were allowed to grow for 4 days and the cultures examined by phase contrast microscopy."}}, "note": "Marks after values point to notes of the source that are not given here.", "data": [{"substance": "poly-l-lysine [reference compound]", "values": [{"measurement": "attachment of C3H10T1/2 cells by crystal violet staining, Average ± S.E.", "setting": "C3H10T1/2 cells [1]", "result": "1.18 ± 0.06***"}]}, {"substance": "poly-l-ornithine [reference compound]", "values": [{"measurement": "attachment of C3H10T1/2 cells by crystal violet staining, Average ± S.E.", "setting": "C3H10T1/2 cells [1]", "result": "0.92 ± 0.28*"}]}, {"substance": "transferrin: protein used at 100 μg/ml on silyl-heparin coated wells", "values": [{"measurement": "attachment of C3H10T1/2 cells by crystal violet staining, Average ± S.E.", "setting": "C3H10T1/2 cells [1]", "result": "0.15 ± 0.03"}]}, {"substance": "fibronectin: bovine plasma fibronectin, adhesive molecule", "values": [{"measurement": "CELL ATTACHMENT", "setting": "[2]; C3H10T1/2, coated low-attachment polystyrene wells, 10^4 cells/well, serum-containing medium", "result": "isolated C3H10T1/2 cells and isolated GS-9L cells were found attached"}, {"measurement": "CELL ATTACHMENT", "setting": "[3]", "result": "isolated C3H10T1/2 cells and isolated GS-9L cells were found attached"}, {"measurement": "affinity constant", "setting": "[4]", "result": "approximately 10^8 M/L"}, {"measurement": "C3H10T1/2 CELL ATTACHMENT", "setting": "C3H10T1/2 cells [5]; surface: Polyactide:polyglycolide", "result": "improve the attachment of cells"}, {"measurement": "C3H10T1/2 CELL ATTACHMENT", "setting": "C3H10T1/2 cells [5]; surface: Polystyrene", "result": "did not significantly support cell attachment"}, {"measurement": "C3H10T1/2 CELL ATTACHMENT", "setting": "C3H10T1/2 cells [5]; surface: Polyurethane", "result": "improve the attachment of cells"}, {"measurement": "attachment of C3H10T1/2 cells by crystal violet staining, Average ± S.E.", "setting": "C3H10T1/2 cells [1]", "result": "1.00 ± 0.10**"}, {"measurement": "effect on binding of bFGF to the silyl-heparin-adhesive molecule complex", "setting": "bFGF", "result": "significantly decreased the binding of bFGF"}, {"measurement": "EC50 to support attachment of C3H10T1/2 cells", "setting": "C3H10T1/2 cells [6]", "result": "approximately 0.5 μg/well"}]}, {"substance": "bFGF: basic fibroblast growth factor (Sigma Chemical Co.)", "values": [{"measurement": "capillary tube formation", "setting": "[7]", "result": "Tubes did not form"}]}, {"substance": "fibrinogen", "values": [{"measurement": "capillary tube formation", "setting": "[7]", "result": "Tubes did not form"}, {"measurement": "attachment of C3H10T1/2 cells by crystal violet staining, Average ± S.E.", "setting": "C3H10T1/2 cells [1]", "result": "1.63 ± 0.17**"}, {"measurement": "effect on binding of bFGF to the silyl-heparin-adhesive molecule complex", "setting": "bFGF", "result": "less significant decrease in binding"}]}, {"substance": "gelatin", "values": [{"measurement": "attachment of C3H10T1/2 cells by crystal violet staining, Average ± S.E.", "setting": "C3H10T1/2 cells [1]", "result": "0.15 ± 0.05"}]}, {"substance": "heparin [reference compound]", "values": [{"measurement": "effect of heparin added to the medium on attachment or growth of cells", "setting": "[2]; up to 10 U of heparin, C3H10T1/2 plated onto silyl-heparin-fibronectin coated plates", "result": "did not inhibit the attachment or growth"}, {"measurement": "effect of coating or treatment on C3H10T1/2 cell attachment", "setting": "C3H10T1/2 cells [5]; regardless of the substrate", "result": "did not inhibit attachment"}]}]}
